Where two headings read alike, the source gives them in different places.
Legend:
[1] = biological target: T1, Human recombinant PDE2A (hPDE2A) (Homo sapiens, UniProt O00408); assay: In vitro assay PDE2A (SPA, 3H-cGMP); format: biochemical
T1 construct: made in house; host or cells: Sf9 insect cells (baculovirus)
Procedure: Human recombinant PDE2A (hPDE2A) was expressed in Sf9 cells using a recombinant rPDE10A baculovirus construct. Cells were harvested after 48 h of infection and the hPDE2A protein was purified by metal chelate chromatography on Ni-sepharose 6FF. Tested compounds were dissolved and diluted in 100% DMSO to a concentration 100 fold of the final concentration in the assay. Compound dilutions (0.4 μl) were added in 384 well plates to 20 μl of incubation buffer (50 mM Tris pH 7.8, 8.3 mM MgCl2, 1.7 mM EGTA). 10 μl of hPDE2A enzyme in incubation buffer was added and the reaction was started by addition of 10 μl substrate to a final concentration of 10 μM cGMP and 0.01 μCi ^3H-cGMP. The reaction was incubated for 45 minutes at room temperature. […] After sedimentation of the beads during 30 minutes the radioactivity was measured in a Perkin Elmer Topcount scintillation counter and results were expressed as cpm. For blanc values the enzyme was omitted from the reaction and replaced by incubation buffer. Control values were obtained by addition of a final concentration of 1% DMSO instead of compound.

hPDE3B = assay: In vitro assay PDE3 (SPA, 3H-cAMP); format: biochemical, human; details: 0.4 μM cAMP substrate; for hPDE3B Emax: in % (unit assumed)
hPDE10A2 = hPDE10A2 (Homo sapiens, UniProt Q9Y233); assay: biochemical; details: 60 nM cAMP substrate; for IC50: human clone, read-out: hPDE10A2 or rPDE10A2 pIC50 (converted); for Emax: read-out: hPDE10A2 or rPDE10A2 Emax, human clone
Sequence of hPDE10A2 (Q9Y233 267-1055): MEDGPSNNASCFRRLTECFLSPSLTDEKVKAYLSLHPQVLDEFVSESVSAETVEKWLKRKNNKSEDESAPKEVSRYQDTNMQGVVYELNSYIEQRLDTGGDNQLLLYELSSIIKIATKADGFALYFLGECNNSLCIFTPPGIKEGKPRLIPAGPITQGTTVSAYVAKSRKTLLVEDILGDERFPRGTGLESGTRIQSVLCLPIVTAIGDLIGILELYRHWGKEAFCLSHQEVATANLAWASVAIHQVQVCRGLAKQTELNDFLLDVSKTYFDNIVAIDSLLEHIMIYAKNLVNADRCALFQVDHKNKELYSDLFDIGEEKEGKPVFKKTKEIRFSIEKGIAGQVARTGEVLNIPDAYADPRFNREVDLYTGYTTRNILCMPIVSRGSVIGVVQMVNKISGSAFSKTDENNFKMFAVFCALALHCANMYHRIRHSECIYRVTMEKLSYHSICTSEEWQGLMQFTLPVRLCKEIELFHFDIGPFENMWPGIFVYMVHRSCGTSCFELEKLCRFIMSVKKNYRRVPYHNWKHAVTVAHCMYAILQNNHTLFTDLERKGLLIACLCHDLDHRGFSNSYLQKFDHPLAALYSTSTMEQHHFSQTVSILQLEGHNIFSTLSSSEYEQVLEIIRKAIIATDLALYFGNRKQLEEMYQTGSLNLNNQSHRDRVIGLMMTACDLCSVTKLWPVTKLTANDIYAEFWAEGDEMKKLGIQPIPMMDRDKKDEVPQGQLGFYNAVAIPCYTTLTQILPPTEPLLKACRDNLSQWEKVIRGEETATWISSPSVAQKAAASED
Procedure: (§1) Rat recombinant PDE10A (rPDE10A2) was expressed in Sf9 cells using a recombinant rPDE10A baculovirus construct. Cells were harvested after 48 h of infection and the rPDE10A protein was purified by metal chelate chromatography on Ni-sepharose 6FF. Tested compounds were dissolved and diluted in 100% DMSO to a concentration 100 fold of the final concentration in the assay. Human recombinant PDE10A ([…]) was expressed in Sf9 cells using a recombinant hPDE10A baculovirus that was made and amplified in house. Cells were harvested after 72 h of infection and the hPDE10A protein was purified by metal chelate chromatography on Ni-sepharose. Compound dilutions (0.4 μl) were added in 384 well plates to 20 μl of incubation buffer (50 mM Tris pH 7.8, 8.3 mM MgCl2, 1.7 mM EGTA). 10 μl of rPDE10A or hPDE10A enzyme in incubation buffer was added and the reaction was started by addition of 10 μl substrate to a final concentration of 60 nM cAMP and […] ^3H-cAMP. The reaction was incubated for 60 minutes at room temperature. After incubation, the reaction was stopped with 20 μl of stop solution consisting of 17.8 mg/ml PDE SPA (scintillation proximity assay) beads. After sedimentation of the beads during 30 minutes the radioactivity was measured in a Perkin Elmer Topcount scintillation counter and results were expressed as cpm. For blanc values the enzyme was omitted from the reaction and replaced by incubation buffer. Control values were obtained by addition of a final concentration of 1% DMSO instead of compound. A best fit curve is fitted by a minimum sum of squares method to the plot of % of control value substracted with blanc value versus compound concentration and the half maximal inhibitory concentration (IC50) value is derived from this curve.

PDE2A = biological target: T2, PDE2A (Rattus norvegicus, UniProt Q01062); assay: PDE2 occupancy by ex-vivo autoradiography with [3H]B-17a; format: in vivo; details: read-out: PDE2 occupancy at 10 mg/kg
T2 construct: Twenty μm-thick striatal sections were cut; from tissue; host or cells: rat brain, striatal sections
T2 sequence (Q01062 1-928): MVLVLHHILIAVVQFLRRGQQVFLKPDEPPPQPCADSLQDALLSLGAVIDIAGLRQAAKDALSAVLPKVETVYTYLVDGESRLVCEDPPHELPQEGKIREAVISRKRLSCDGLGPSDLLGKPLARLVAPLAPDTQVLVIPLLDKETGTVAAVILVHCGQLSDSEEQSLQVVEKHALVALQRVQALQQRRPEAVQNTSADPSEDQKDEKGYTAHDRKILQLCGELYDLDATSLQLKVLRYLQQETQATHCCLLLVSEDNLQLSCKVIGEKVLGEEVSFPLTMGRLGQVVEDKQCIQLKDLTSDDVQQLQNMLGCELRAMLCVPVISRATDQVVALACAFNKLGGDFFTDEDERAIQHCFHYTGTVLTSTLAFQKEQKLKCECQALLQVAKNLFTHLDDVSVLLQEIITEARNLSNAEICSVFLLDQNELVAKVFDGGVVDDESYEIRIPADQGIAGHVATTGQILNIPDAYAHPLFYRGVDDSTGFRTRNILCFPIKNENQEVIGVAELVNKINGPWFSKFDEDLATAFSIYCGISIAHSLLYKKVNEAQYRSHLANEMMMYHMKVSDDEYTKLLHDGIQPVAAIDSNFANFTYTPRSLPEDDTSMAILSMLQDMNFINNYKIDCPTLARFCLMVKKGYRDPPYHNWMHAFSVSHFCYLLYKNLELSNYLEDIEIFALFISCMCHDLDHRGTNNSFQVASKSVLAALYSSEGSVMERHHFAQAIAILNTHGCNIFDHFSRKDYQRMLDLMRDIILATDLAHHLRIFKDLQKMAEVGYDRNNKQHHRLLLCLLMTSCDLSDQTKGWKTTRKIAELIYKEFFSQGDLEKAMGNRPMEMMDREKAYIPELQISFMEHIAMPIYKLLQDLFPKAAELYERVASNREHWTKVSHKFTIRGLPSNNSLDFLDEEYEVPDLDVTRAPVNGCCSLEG
Procedure: Brains were immediately removed from the skull and rapidly frozen in dry-ice cooled 2-methylbutane (−40° C.).
After thawing, sections were dried under a cold stream of air and incubated for one minute with 30 nM [^3H]B-17a in Tris-HCl (50 mM, pH7.4) containing 0.3% BSA. Brain sections from drug-treated and vehicle-treated animals were incubated in parallel. […] After incubation, the excess of [^3H]B-17a was washed off in ice-cold buffer 2 times 10 minutes, followed by a quick dip in distilled water. The sections were then dried under a stream of cold air.
Brain sections were loaded in a […] (Biospace, Paris) for 4 h and radioactivity emerging from delineated brain area was quantified using the Beta vision program (Biospace, Paris). Specific binding was determined as the difference between total binding in the striatum and non-specific binding in the cerebellum. Percentage receptor occupancy of the drug administered to the animal corresponded to 100% minus the percentage receptor labeled in the treated animal. For the determination of ED50-values, the percentage of receptor occupancy was plotted against dose and the sigmoidal log dose-effect curve of best fit was calculated by non-linear regression analysis, using the GraphPad Prism program.

rPDE10A2 = biological target: T3, rPDE10A2 (Rattus norvegicus, UniProt Q9QYJ6); assay: In vitro assay PDE10A, rat clone (SPA, 3H-cAMP); format: biochemical; details: for IC50: rat clone (r), 60 nM cAMP substrate, read-out: hPDE10A2 or rPDE10A2 pIC50 (converted); for Emax: read-out: hPDE10A2 or rPDE10A2 Emax
T3 construct: made in house; host or cells: Sf9 insect cells (baculovirus)
T3 sequence (Q9QYJ6 1-794): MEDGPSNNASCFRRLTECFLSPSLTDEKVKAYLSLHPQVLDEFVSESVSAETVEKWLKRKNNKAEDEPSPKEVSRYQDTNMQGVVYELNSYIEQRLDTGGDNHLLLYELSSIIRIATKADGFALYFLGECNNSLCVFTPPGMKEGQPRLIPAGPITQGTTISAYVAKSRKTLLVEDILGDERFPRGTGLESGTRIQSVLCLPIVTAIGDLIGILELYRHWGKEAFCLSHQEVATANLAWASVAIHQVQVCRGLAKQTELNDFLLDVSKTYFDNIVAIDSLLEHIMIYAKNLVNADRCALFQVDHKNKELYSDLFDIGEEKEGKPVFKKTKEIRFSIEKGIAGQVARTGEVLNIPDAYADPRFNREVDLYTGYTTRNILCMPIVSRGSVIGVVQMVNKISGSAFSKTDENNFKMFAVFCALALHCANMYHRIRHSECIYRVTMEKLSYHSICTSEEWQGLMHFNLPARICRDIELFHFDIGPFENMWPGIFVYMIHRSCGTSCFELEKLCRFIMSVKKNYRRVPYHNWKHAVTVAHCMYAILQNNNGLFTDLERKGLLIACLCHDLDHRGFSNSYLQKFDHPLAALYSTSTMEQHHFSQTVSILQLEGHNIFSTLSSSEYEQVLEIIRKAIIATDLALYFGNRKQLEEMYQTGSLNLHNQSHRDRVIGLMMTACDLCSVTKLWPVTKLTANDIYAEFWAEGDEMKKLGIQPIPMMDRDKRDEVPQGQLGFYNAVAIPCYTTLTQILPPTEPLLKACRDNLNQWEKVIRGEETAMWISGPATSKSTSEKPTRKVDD
Procedure: as §1

[2] = hPDE2A pIC50, 10 μM cGMP substrate
[3] = male Wistar rats, 10 mg/kg SC (subcutaneous), striatum, percentage occupancy

T1 sequence (O00408 whole entry): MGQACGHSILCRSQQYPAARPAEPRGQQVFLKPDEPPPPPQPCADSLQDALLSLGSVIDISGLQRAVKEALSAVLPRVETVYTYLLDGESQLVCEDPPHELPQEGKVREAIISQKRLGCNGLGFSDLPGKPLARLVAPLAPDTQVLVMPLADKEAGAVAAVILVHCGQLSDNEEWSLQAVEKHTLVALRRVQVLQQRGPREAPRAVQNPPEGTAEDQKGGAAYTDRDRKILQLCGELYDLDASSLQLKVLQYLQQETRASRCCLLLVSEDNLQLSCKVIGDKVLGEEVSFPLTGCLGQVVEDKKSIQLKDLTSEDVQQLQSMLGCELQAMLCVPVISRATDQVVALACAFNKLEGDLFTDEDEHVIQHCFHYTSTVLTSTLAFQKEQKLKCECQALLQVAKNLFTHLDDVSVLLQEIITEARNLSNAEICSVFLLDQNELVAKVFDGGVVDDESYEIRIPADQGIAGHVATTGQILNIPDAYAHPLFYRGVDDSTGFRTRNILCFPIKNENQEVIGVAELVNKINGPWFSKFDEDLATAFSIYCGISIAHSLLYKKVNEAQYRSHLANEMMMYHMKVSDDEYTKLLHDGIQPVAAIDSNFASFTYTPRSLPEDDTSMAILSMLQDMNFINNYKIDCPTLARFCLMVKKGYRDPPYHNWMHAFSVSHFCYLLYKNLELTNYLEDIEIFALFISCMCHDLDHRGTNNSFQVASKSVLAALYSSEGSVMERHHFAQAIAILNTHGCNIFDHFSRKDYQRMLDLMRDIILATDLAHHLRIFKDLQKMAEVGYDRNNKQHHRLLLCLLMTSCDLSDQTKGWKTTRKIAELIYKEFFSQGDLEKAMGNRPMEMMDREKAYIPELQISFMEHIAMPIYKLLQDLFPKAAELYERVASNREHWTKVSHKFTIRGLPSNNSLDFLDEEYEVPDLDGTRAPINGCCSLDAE

Structure (SMILES)	Emax ([1]; 10 μM cGMP substrate) [%]	IC50 [1, 2] [nM]	hPDE3B pIC50 (hPDE3B)	hPDE3B Emax (hPDE3B)	IC50 (hPDE10A2) [µM]	Emax (hPDE10A2) [%]	melting point [°C]	IC50 [1] [nM]	receptor occupancy at 10 mg/kg (PDE2A; po) [%]	receptor occupancy at 10 mg/kg (PDE2A; [3]) [%]	IC50 ([1]; 10 μM cGMP substrate, read-out: hPDE2A pIC50 (converted)) [nM]	IC50 (rPDE10A2) [nM]	Emax (rPDE10A2) [%]
C[C@@H]1CCN(Cc2cccc(N3CCCCC3)n2)C[C@H]1c1cc(C(F)F)nc2ncnn12 [Compound 17]	100	195	<5	41	> 10	49	137.52						
C[C@@H]1CCN(Cc2ccc3nccn3c2)C[C@H]1c1cc(C(F)F)nc2ncnn12 [Compound 34]	91		<5	18	4.68	67		22.9	0				
Cc1cc(CN2CC[C@@H](C)[C@H](c3cc(C(F)F)nc4ncnn34)C2)cc(C)n1.Cl [Compound 33]	96		<5	8	4.07	72		22.4		37			
Cc1cc([C@@H](C)N2CC[C@@H](C)[C@H](c3cc(C(F)F)nc4ncnn34)C2)cc(C2CC2)n1 (relative stereo) [Compound 3]	100		<5	19	1.26	91			21		13.5		
Cc1cc(C(C)N2CC[C@@H](C)[C@H](c3cc(C(F)F)nc4ncnn34)C2)cc(C)n1 (single isomer, unassigned) [Compound 1a, 5-(difluoromethyl)-7-[(3 S,4R)-1-[(1R*)-1-(2,6-dimethyl-4-pyridyl)ethyl]-4-methyl-3-piperidyl]-[1,2,4]triazolo[1,5-a]pyrimidine]	99	102	<5	34	5.62	64	141.46						
C[C@@H]1CCN(Cc2cc3ccccc3cn2)C[C@H]1c1cc(C(F)F)nc2ncnn12 [Compound 8]	100	8.51	5.09	61	1.48	85				0			
Cc1cc(CN2CCCC(C)(c3cc(C(F)F)nc4ncnn34)C2)cc(Cl)n1 (stereo not drawn) [Compound 28]	16		<5	10				5620				> 10000	7.2
FC(F)c1cc(C2CCCN(Cc3cc4ccccc4o3)C2)n2ncnc2n1 (stereo not drawn) [Compound 37]	81	200	5.92	88								1050	50.7
Cc1cc(CN2CC[C@@H](C)[C@H](c3cc(C(F)F)nc4ncnn34)C2)cc(C)c1Cl.Cl [Compound 36]	100			43	3.72	82		56.2	0				

Reference: patent US11319321B2, “[1,2,4]triazolo[1,5-a]pyrimidine compounds as PDE2 inhibitors” (Janssen Pharmaceutica NV, priority 2016, dated 2022)
